# Test results: ChEMBL document CHEMBL6109156, “Discovery of Dual PD-L1/HDAC3 Inhibitors for Tumor Immunotherapy” (J Med Chem, 2025)
# Legend:
# [1] = tested on: B16-F10; test: Induction of apoptosis in mouse B16-F10 cells assessed as viable cells at 4 uM incubated for 48 hrs by Annexin V-FITC/PI staining based flow cytometry analysis (reference value: 92.3%); format: functional; settings: read-out: Activity
# [2] = tested on: B16-F10; test: Induction of cell cycle arrest in mouse B16-F10 cells assessed as accumulation of cells at G0/G1 phase at 2 uM incubated for 48 hrs by PI staining based flow cytometry analysis (reference value: 70.09%); format: functional
# [3] = tested on: B16-F10; test: Induction of cell cycle arrest in mouse B16-F10 cells assessed as accumulation of cells at S phase at 8 uM incubated for 48 hrs by PI staining based flow cytometry analysis (reference value: 24.04%); format: functional
# [4] = tested on: A-375; test: Antiproliferative activity against human A-375 cells assessed as cell growth inhibition incubated for 48 hrs by MTT assay; format: functional, cell-based; settings: A-375, 48 h
# [5] = tested on: B16-F10; test: Induction of cell cycle arrest in mouse B16-F10 cells assessed as accumulation of cells at S phase at 2 uM incubated for 48 hrs by PI staining based flow cytometry analysis (reference value: 24.04%); format: functional
# [6] = molecular target: Histone deacetylase 1 (Homo sapiens, UniProt Q13547); test: Inhibition of human recombinant HDAC1 using Ac-Leu-Gly-Lys (Ac)-AMC as substrate preincubated for 10 mins followed by substrate addition and measured after 45 mins by TECAN microtiter plate reader analysis
# [7] = tested on: B16-F10; test: Induction of apoptosis in mouse B16-F10 cells assessed as necrotic cells at 2 uM incubated for 48 hrs by Annexin V-FITC/PI staining based flow cytometry analysis (reference value: 2.24%); format: functional
# [8] = tested on: B16-F10; test: Induction of apoptosis in mouse B16-F10 cells assessed as viable cells at 1 uM incubated for 48 hrs by Annexin V-FITC/PI staining based flow cytometry analysis (reference value: 92.3%); format: functional; settings: read-out: Activity
# [9] = tested on: B16-F10; test: Induction of apoptosis in mouse B16-F10 cells assessed as viable cells at 2 uM incubated for 48 hrs by Annexin V-FITC/PI staining based flow cytometry analysis (reference value: 92.3%); format: functional; settings: read-out: Activity
# [10] = tested on: B16-F10; test: Immunomodulatory activity in mouse B16-F10 cells implanted in C57BL/6J mouse assessed as percentage of CD3 positive CD8 positive cells in tumor at 40 mg/kg, ip administered once daily for 9 days by flow cytometric analysis (reference value: 0.44 %); format: functional; settings: time 9 day
# [11] = Toxicity in C57BL/6J mouse implanted with mouse B16-F10 cells assessed as liver damage at 20 to 40 mg/kg, ip administered once daily for 9 days by H and E staining based analysis; format: organism-based; settings: in vivo, 216 h, dose 20-40 mg/kg, time 9 day
# [12] = tested on: B16-F10; test: Induction of apoptosis in mouse B16-F10 cells assessed as early apoptotic cells at 2 uM incubated for 48 hrs by Annexin V-FITC/PI staining based flow cytometry analysis (reference value: 0.45 %); format: functional
# [13] = tested on: B16-F10; test: Induction of apoptosis in mouse B16-F10 cells assessed as late apoptotic cells at 4 uM incubated for 48 hrs by Annexin V-FITC/PI staining based flow cytometry analysis (reference value: 5.02 %); format: functional
# [14] = molecular target: T1, Histone deacetylase 3 (Homo sapiens, UniProt O15379); test: Inhibition of human recombinant HDAC3 using Ac-Leu-Gly-Lys (Ac)-AMC as substrate at 1 uM preincubated for 10 mins followed by substrate addition and measured after 45 mins by TECAN microtiter plate reader analysis relative to control; settings: time 55.0 min
# [15] = tested on: B16-F10; test: Induction of apoptosis in mouse B16-F10 cells assessed as late apoptotic cells at 1 uM incubated for 48 hrs by Annexin V-FITC/PI staining based flow cytometry analysis (reference value: 5.02 %); format: functional
# [16] = molecular target: Programmed cell death protein 1/Programmed cell death 1 ligand 1 (Homo sapiens, UniProt Q9NZQ7); test: (§1) Inhibition of PD-1/PD-L1 (unknown origin) interaction assessed as inhibition rate at 1 uM by HTRF assay relative to control; format: protein-complex assay
# [17] = molecular target: Programmed cell death protein 1/Programmed cell death 1 ligand 1 (Homo sapiens) (UniProt Q15116+Q9NZQ7); test: as §1; format: protein-complex assay
# [18] = tested on: B16-F10; test: Induction of cell cycle arrest in mouse B16-F10 cells assessed as accumulation of cells at G0/G1 phase at 1 uM incubated for 48 hrs by PI staining based flow cytometry analysis (reference value: 70.09%); format: functional
# [19] = tested on: B16-F10; test: Induction of apoptosis in mouse B16-F10 cells assessed as early apoptotic cells at 1 uM incubated for 48 hrs by Annexin V-FITC/PI staining based flow cytometry analysis (reference value: 0.45 %); format: functional
# [20] = tested on: B16-F10; test: Induction of apoptosis in mouse B16-F10 cells assessed as early apoptotic cells at 8 uM incubated for 48 hrs by Annexin V-FITC/PI staining based flow cytometry analysis (reference value: 0.45 %); format: functional
# [21] = tested on: B16-F10; test: Antitumor activity against mouse B16-F10 cells implanted in C57BL/6J mouse assessed as tumor growth inhibition at 20 mg/kg, ip administered once daily for 9 days; format: functional; settings: B16-F10, 216 h, time 9 day, read-out: TGI
# [22] = tested on: B16-F10; test: Induction of apoptosis in mouse B16-F10 cells assessed as necrotic cells at 4 uM incubated for 48 hrs by Annexin V-FITC/PI staining based flow cytometry analysis (reference value: 2.24%); format: functional
# [23] = molecular target: T1, Histone deacetylase 3; test: Inhibition of human recombinant HDAC3 using Ac-Leu-Gly-Lys (Ac)-AMC as substrate preincubated for 10 mins followed by substrate addition and measured after 45 mins by TECAN microtiter plate reader analysis
# [24] = tested on: B16-F10; test: Induction of apoptosis in mouse B16-F10 cells assessed as late apoptotic cells at 2 uM incubated for 48 hrs by Annexin V-FITC/PI staining based flow cytometry analysis (reference value: 5.02 %); format: functional
# [25] = tested on: B16-F10; test: Induction of cell cycle arrest in mouse B16-F10 cells assessed as accumulation of cells at G0/G1 phase at 8 uM incubated for 48 hrs by PI staining based flow cytometry analysis (reference value: 70.09%); format: functional
# T1 sequence (O15379 whole entry): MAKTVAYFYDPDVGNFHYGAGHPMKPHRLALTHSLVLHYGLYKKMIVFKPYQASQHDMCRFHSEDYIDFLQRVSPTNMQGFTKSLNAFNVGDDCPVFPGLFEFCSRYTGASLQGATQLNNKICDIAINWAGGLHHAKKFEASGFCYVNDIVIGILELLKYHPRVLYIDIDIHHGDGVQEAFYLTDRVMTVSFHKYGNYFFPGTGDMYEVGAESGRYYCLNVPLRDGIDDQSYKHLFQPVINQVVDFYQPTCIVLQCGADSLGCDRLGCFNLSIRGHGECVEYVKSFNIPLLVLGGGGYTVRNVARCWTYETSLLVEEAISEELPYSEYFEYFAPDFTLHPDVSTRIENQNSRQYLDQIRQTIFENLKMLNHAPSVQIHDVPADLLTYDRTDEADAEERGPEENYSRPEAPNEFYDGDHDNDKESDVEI
# Chain of Programmed cell death protein 1/Programmed cell death 1 ligand 1 (Q15116 whole entry): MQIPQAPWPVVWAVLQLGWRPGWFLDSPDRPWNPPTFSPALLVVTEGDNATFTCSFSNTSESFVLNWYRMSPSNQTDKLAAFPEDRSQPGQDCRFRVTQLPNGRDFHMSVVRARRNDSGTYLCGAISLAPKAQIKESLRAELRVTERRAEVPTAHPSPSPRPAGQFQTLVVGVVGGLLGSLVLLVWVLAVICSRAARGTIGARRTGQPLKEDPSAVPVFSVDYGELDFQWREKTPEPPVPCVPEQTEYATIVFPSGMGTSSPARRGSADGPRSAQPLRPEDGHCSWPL
# Chain of Programmed cell death protein 1/Programmed cell death 1 ligand 1 (Q9NZQ7 whole entry): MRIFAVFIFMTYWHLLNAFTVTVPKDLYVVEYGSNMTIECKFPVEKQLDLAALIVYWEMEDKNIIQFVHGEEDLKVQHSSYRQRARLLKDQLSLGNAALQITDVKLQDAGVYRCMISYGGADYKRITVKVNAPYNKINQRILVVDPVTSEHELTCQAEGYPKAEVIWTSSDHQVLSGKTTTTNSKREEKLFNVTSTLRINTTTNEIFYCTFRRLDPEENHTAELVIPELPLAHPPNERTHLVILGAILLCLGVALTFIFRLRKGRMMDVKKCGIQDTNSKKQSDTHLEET
# Chain of Histone deacetylase 1 (Q13547 whole entry): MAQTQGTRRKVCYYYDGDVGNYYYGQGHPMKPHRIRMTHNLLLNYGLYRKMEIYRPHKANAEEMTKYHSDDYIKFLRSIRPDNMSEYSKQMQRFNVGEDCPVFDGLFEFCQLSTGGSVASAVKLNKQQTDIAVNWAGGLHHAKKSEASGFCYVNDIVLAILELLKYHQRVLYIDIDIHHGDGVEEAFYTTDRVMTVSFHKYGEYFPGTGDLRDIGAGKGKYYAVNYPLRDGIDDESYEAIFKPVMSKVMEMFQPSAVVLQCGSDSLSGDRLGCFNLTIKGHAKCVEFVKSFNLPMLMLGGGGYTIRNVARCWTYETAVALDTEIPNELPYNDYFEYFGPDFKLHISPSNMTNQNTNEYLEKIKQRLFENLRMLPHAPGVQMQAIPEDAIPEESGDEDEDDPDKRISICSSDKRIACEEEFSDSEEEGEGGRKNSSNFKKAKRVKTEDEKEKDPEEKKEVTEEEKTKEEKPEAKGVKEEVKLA
smiles,measurement,setting,value
CCCNNC(=O)CCCNCc1ccc(-c2cccc(-c3ccccc3)c2C)nc1OC,viability at 4 µM,[1],62.3%
same,Activity,[2],87.25%
same,Activity,[3],0.5%
same,IC50,[4],3460 nM
same,Activity,[5],7.79%
same,IC50,[6],2230 nM
same,Activity,[7],4.4%
same,viability at 1 µM,[8],84.8%
same,viability at 2 µM,[9],71.7%
same,Activity,[10],5.08%
same,Activity,[11],Non-toxic
same,Activity,[12],9.81%
same,Activity,[13],16.4%
same,inhibition,[14],83.1%
same,Activity,[15],9.24%
same,IC50,[16],89.4 nM
same,inhibition,[17],94.3%
same,Activity,[18],73.46%
same,Activity,[19],3.34%
same,Activity,[20],32.8%
same,inhibition in vivo at 20 mg/kg,[21],48.9%
same,Activity,[22],4.08%
same,IC50,[23],107 nM
same,Activity,[24],14.1%
same,Activity,[25],96.8%
